Laboratory results published in patent US10227357B2, “Compounds and methods for kinase modulation, and indications therefor” (Plexxikon Inc., priority 2012, dated 2019).

Legend:
c-kit kinase = biological target: T1, c-kit kinase (Homo sapiens, UniProt P10721); assay: c-Kit biochemical assay, AlphaScreen, 10 μM ATP; conditions: c-kit biochemical inhibitory activity; read-out: Biochemical activity (IC50 μM) Kit
T1 construct: The c-kit (or kinase domain thereof) is an active kinase in AlphaScreen; poly-Histidine tag (in-house protein only) (cleaved yes); host or cells: E. coli BL21(DE3)RIL, co-expressed with PTP1B
How it was run: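 His-tagged c-Kit expressed in E. coli with co-expressed PTP1B (dephosphorylated), tag removed; 0.1 ng per reaction with biotinylated-peptide substrate in 50 mM HEPES pH 7.2, 5 mM MgCl2, 5 mM MnCl2, 5% DMSO, 10 μM ATP, 1 h at room temperature. Phosphorylation detected by AlphaScreen (streptavidin donor, PY20 acceptor beads); IC50 from 8-point 1:3 dilution series.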

c-kit mutant D816V = biological target: T2, c-kit mutant D816V (Homo sapiens, UniProt P10721, D816V/DEL694-753); assay: c-Kit mutant D816V biochemical assay, AlphaScreen; conditions: c-kit D816V biochemical inhibitory activity; read-out: Biochemical activity (IC50 μM) Kit D816V
T2 construct: residues 551-934, kinase insertion domain residues 694-753 deleted; 6x-histidine (N); made in house; host or cells: E. coli Arctic Express (DE3) RIL (Stratagene)
How it was run: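 Eight-point, threefold compound series incubated 30 min at room temperature with E. coli-produced D816V kinase, 10 μM ATP, Mg2+/Mn2+ HEPES buffer pH 7.2 and 5% DMSO. After EDTA stop, streptavidin and anti-phosphotyrosine (PY20) AlphaScreen beads gave the read-out, and IC50 was fitted from the concentration–signal curve.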

T2 sequence (P10721 with tags, fused parts or gaps DEL694-753/D816V): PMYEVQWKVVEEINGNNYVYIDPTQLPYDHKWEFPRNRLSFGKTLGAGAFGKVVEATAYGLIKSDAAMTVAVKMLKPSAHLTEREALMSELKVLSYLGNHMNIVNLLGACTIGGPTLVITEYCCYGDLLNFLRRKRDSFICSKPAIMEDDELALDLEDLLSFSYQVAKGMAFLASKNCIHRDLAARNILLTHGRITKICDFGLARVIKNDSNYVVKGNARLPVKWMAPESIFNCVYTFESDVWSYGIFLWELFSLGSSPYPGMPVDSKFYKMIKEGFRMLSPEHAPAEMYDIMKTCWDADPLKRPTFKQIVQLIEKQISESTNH
T1 sequence (P10721 26-976): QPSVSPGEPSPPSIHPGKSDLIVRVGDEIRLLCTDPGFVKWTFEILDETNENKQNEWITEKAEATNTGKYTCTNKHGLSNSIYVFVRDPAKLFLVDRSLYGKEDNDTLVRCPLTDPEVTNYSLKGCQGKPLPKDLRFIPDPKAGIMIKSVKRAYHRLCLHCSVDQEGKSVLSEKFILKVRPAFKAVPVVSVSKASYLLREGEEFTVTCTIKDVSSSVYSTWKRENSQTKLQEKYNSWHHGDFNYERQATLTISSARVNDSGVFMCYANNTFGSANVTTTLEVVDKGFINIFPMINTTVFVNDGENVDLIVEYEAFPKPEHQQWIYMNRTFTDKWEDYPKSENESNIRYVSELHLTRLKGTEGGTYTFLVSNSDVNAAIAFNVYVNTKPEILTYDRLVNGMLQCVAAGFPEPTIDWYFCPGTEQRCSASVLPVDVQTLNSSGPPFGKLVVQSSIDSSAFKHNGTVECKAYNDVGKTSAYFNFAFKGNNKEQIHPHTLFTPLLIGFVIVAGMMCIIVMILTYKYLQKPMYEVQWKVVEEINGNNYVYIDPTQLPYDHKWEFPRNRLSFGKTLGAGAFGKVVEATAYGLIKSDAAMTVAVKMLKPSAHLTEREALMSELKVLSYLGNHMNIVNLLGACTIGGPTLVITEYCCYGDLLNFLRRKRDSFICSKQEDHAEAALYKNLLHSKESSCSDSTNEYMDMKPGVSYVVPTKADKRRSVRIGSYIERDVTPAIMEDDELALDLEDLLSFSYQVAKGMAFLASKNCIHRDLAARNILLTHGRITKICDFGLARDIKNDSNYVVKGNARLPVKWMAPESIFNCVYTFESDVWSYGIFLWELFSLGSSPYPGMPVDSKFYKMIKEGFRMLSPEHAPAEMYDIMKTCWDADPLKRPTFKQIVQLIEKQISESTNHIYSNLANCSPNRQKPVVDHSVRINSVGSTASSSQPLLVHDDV

| SMILES | IC50 (c-kit kinase) [µM] | IC50 (c-kit mutant D816V) [µM] |
| --- | --- | --- |
| Cc1ncc(-c2cc3c(N4CCN(C(=O)Nc5ccc(OC(F)(F)F)cc5)CC4)ncnc3[nH]2)s1 [P-0080, 4-[6-(2-methylthiazol-5-yl)-7H-pyrrolo[2,3-d]pyrimidin-4-yl]-N-[4-(trifluoromethoxy)phenyl]piperazine-1-carboxamide] | 0.0001 to 1 | 0.0001 to 1 |
| CNC(=O)c1cccc(-c2cc3c(N4CCN(C(=O)NCc5ccc(F)cc5)CC4)ncnc3[nH]2)c1 [P-0081, N-[(4-fluorophenyl)rnethyl]-4-[6-[3-(methylcarbamoyl)phenyl]-7H-pyrrolo[2,3-d]pyrimidin-4-yl]piperazine-1-carboxamide] | 1 to 10 | 0.0001 to 1 |
| CC(=O)Nc1cccc(-c2cc3c(N4CCN(C(=O)NCc5ccc(F)cc5)CC4)ncnc3[nH]2)c1 [P-0082, 4-[6-(3-acetamidophenyl)-7H-pyrrolo[2,3-d]pyrimidin-4-yl]-N-[(4-fluorophenyl)methyl]piperazine-1-carboxamide] | 1 to 10 | 0.0001 to 1 |
| NS(=O)(=O)c1cccc(-c2cc3c(N4CCN(C(=O)Nc5ccc(OC(F)(F)F)cc5)CC4)ncnc3[nH]2)c1 [P-0083, 4-[6-(3-sulfamoylphenyl)-7H-pyrrolo[2,3-d]pyrimidin-4-yl]-N-[4-(trifluoromethoxy)phenyl]piperazine-1-carboxamide] | 0.0001 to 1 | 0.0001 to 1 |
| CC(=O)Nc1ccc(-c2cc3c(N4CCN(C(=O)Nc5ccc(OC(F)(F)F)cc5)CC4)ncnc3[nH]2)cn1 [P-0084, 4-[6-(6-acetamido-3-pyridyl)-7H-pyrrolo[2,3-d]pyrimidin-4-yl]-N-[4-(trifluoromethoxy)phenyl]piperazine-1-carboxamide] | 1 to 10 | 0.0001 to 1 |
| CN(C)C(=O)c1cccc(-c2cc3c(N4CCN(C(=O)Nc5ccc(OC(F)(F)F)cc5)CC4)ncnc3[nH]2)c1 [P-0085, 4-[6-[3-(dimethylcarbamoyl)phenyl]-7H-pyrrolo[2,3-d]pyrimidin-4-yl]-N-[4-(trifluoromethoxy)phenyl]piperazine-1-carboxamide] | 0.0001 to 1 | 0.0001 to 1 |
| N#Cc1ccc(-c2cc3c(N4CCN(C(=O)Nc5ccc(OC(F)(F)F)cc5)CC4)ncnc3[nH]2)cc1 [P-0086, 4-[6-(4-cyanophenyl)-7H-pyrrolo[2,3-d]pyrimidin-4-yl]-N-[4-(trifluoromethoxy)phenyl]piperazine-1-carboxamide] | 1 to 10 | 0.0001 to 1 |
| COc1ncc(CNC(=O)N2CCN(c3ncnc4[nH]c(-c5ccc(F)cc5)cc34)CC2)cc1F [P-0087, N-[(5-fluoro-6-methoxy-3-pyridyl)methyl]-4-[6-(4-fluorophenyl)-7H-pyrrolo[2,3-d]pyrimidin-4-yl]piperazine-1-carboxamide] | 1 to 10 | 0.0001 to 1 |
| C#Cc1cc2c(N3CCN(C(=O)Nc4ccc(OCC)cc4)CC3)ncnc2[nH]1 [P-0089, N-(4-ethoxyphenyl)-4-(6-ethynyl-7H-pyrrolo[2,3-d]pyrimidin-4-yl)piperazine-1-carboxamide] | 1 to 10 | 10 to 200 |
| Cn1cc(-c2cc3c(N4CCN(C(=O)Nc5ccc(OC(F)F)cc5)CC4)ncnc3[nH]2)cn1 [P-0091, N-[4-(difluoromethoxy)phenyl]-4-[6-(1-methylpyrazol-4-yl)-7H-pyrrolo[2,3-d]pyrimidin-4-yl]piperazine-1-carboxamide] | 0.0001 to 1 | 0.0001 to 1 |
| Cn1cc(-c2cc3c(N4CCN(C(=O)Nc5ccc(OC(F)(F)F)cc5)CC4)ncnc3[nH]2)cn1 [P-0092, 4-[6-(1-methylpyrazol-4-yl)-7H-pyrrolo[2,3-d]pyrimidin-4-yl]-N-[4-(trifluoromethoxy)phenyl]piperazine-1-carboxamide] | 0.0001 to 1 | 0.0001 to 1 |
| COc1cccc([C@H](C)NC(=O)N2CCN(c3ncnc4[nH]c(-c5cnn(C)c5)cc34)CC2)c1 [P-0093, N-[(1S)-1-(3-methoxyphenyl)ethyl]-4-[6-(1-methylpyrazol-4-yl)-7H-pyrrolo[2,3-d]pyrimidin-4-yl]piperazine-1-carboxamide] | 0.0001 to 1 | 0.0001 to 1 |
